Source: article PMC3216861, “Improving L-arabinose utilization of pentose fermenting Saccharomyces cerevisiae cells by heterologous expression of L-arabinose transporting sugar transporters” (Biotechnology for Biofuels, 2011)

Columns and labels:
[1] = biological target: T1, ScHxt10 (Saccharomyces cerevisiae, UniProt P43581); experiment: growth complementation of transporter-null L-arabinose-utilizing yeast; type: cell-based; conditions: 20 g/L L-arabinose plates, 30°C, 10 days, strain TSY01; growth read-out only
T1 construct: gene HXT10; HXT10 under shortened HXT7 promoter on 2-micron plasmid pTHHXT10, expressed in hexose-transporterless strain TSY01
T1 sequence (P43581 1-546): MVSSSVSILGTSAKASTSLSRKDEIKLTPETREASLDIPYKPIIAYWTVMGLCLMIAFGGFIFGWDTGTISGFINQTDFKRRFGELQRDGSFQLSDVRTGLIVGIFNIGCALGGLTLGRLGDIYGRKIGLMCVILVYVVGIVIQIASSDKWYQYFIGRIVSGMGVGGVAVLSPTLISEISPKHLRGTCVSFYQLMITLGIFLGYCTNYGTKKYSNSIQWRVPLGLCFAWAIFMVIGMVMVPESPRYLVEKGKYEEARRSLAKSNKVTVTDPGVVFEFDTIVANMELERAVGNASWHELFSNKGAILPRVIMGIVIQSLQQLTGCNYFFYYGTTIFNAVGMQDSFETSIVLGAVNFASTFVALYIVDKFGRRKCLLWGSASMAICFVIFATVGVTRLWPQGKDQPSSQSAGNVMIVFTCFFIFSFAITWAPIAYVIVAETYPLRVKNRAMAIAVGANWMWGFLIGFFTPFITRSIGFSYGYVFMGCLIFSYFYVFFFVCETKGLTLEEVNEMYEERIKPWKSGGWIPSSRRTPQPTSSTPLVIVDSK

[2] = biological target: T2, ScHxt9 (Saccharomyces cerevisiae, UniProt P40885); experiment: as above; type: cell-based; conditions: 20 g/L L-arabinose plates, 30°C, 10 days, strain TSY01; growth read-out only
T2 construct: gene HXT9; HXT9 under shortened HXT7 promoter on 2-micron plasmid pTHHXT9, expressed in hexose-transporterless strain TSY01
T2 sequence (P40885 1-567): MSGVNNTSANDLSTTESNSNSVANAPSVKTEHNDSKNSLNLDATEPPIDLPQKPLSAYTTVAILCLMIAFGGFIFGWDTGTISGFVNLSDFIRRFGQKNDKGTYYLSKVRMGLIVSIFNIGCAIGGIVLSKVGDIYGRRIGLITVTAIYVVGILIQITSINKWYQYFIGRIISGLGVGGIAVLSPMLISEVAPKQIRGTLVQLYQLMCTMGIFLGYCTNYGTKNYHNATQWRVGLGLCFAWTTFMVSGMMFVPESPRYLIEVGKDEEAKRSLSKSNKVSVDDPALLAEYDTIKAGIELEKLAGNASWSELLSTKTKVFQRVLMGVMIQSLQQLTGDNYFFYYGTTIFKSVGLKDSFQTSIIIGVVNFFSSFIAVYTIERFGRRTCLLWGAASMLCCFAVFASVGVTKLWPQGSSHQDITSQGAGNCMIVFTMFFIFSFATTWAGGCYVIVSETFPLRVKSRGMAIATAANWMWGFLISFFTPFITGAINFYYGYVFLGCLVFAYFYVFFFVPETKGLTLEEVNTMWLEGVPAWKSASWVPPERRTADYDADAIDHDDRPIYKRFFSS

Compound: OC1OC[C@H](O)[C@H](O)[C@H]1O (stereo partly drawn) [L-arabinose]
- growth complementation of transporter-null L-arabinose-utilizing yeast [1]: Transformants expressing ScGal2, ScHxt9 and ScHxt10 could grow on the L-arabinose medium
- growth complementation of transporter-null L-arabinose-utilizing yeast [2]: Transformants expressing ScGal2, ScHxt9 and ScHxt10 could grow on the L-arabinose medium
